Experimental data: patent publication US12084462B2, “Spiro bicyclic inhibitors of menin-MLL interaction” (Janssen Pharmaceutica NV, priority 2016, dated 2024)
Where “and” joins values, the source holds several entries; their conditions need not be identical. Equal entries are not always repeated. Where two headings read alike, the source gives them in different places.

Tests used:
[1] = target: T1, menin (Homo sapiens, UniProt O00255, T541A); test: Menin/MLL fluorescence polarization (FP) assay; assay type: binding
T1 sequence (O00255 with tags, fused parts or gaps T541A): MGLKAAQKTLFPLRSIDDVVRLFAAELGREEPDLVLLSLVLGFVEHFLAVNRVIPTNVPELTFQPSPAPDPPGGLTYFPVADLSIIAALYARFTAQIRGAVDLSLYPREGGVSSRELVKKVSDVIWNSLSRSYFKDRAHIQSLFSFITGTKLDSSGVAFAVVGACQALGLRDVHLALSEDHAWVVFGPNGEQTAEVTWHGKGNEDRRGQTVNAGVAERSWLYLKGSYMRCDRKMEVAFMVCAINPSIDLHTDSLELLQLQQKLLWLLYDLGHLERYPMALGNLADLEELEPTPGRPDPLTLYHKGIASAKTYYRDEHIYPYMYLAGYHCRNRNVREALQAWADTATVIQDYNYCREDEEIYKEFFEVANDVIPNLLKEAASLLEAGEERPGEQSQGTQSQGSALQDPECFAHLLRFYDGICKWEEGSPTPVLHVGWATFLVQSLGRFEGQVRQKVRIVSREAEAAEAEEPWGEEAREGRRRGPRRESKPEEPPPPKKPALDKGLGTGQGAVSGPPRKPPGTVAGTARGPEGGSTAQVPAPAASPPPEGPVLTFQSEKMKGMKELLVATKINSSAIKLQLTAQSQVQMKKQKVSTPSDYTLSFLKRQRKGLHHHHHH
Procedure: 1) Menin/MLL Fluorescence Polarization Assay
To a non-surface binding, black 384-well microtiter plate was added 50 nL 160× test compound in DMSO and 4 μL 2× menin in assay buffer (40 mM Tris·HCl, pH 7.5, 50 mM NaCl, 1 mM DTT and 0.001% Tween 20). After incubation of test compound and menin for 10 min at ambient temperature, 4 μL 2×FITC-MBM1 peptide (FITC-β-alanine-SARWRFPARPGT-NH2 (SEQ ID NO: 2)) in assay buffer was added, the microtiter plate centrifuged at 1000 rpm for 1 min and the assay mixtures incubated for 15 min at ambient temperature. The relative amount of menin·FITC-MBM1 complex present in an assay mixture is determined by measuring the fluorescence polarization (FP) of the FITC label with a BMG Pherastar plate reader (ex. 485 nm/em. 520 nm) at ambient temperature. The final concentrations of reagents in the binding assay are 100 nM menin, 5 nM FITC-MBM1 peptide and 0.625% DMSO in assay buffer. Dose-response titrations of test compounds are conducted using an 11 point, three-fold serial dilution scheme, starting at 31 μM.
Compound potencies were determined by first calculating % inhibition at each compound concentration according to equation 1: % inhibition=((HC−LC)−(FP^compound−LC))/(HC−LC))*100 (Eqn 1)
Where LC and HC are the FP values of the assay in the presence or absence of a saturating concentration of a compound that competes with FITC-MBM1 for binding to menin, and FP^compound is the measured FP value in the presence of the test compound. HC and LC FP values represent an average of at least 16 replicates per plate. […] 2) Proliferation Assay

[2] = test system: MOLM14; test: Proliferation assay (spheroid assay) MOLM14; assay type: cell-based, human
Procedure: (§1) The anti-proliferative effect of menin/MLL protein/protein interaction inhibitor test compounds was assessed in human leukemia cell lines. The cell lines MV-4-11 and MOLM14 harbor MLL translocations and express the MLL fusion proteins MLL-AF4 and MLL-AF9, respectively, as well as the wildtype protein from the second allele. […] K562 and KG1 were used as a control cell lines containing two MLL wildtype alleles in order to exclude compounds that display general cytotoxic effects.
(§2) MV-4-11 and MOLM14 were cultured in RPMI-1640 (Sigma Aldrich) supplemented with 10% fetal bovine serum (HyClone), 2 mM L-glutamine (Sigma Aldrich) and 50 μg/ml gentamycin (Gibco). K562 were propagated in RPMI-1640 (Sigma Aldrich) supplemented with 20% fetal bovine serum (HyClone), 2 mM L-glutamine (Sigma Aldrich) and 50 μg/ml gentamycin (Gibco). KG1 were cultured in Iscove's MDM (Gibco) supplemented with 20% fetal bovine serum (HyClone), 2 mM L-glutamine (Sigma Aldrich) and 50 μg/ml gentamycin (Gibco).
(§3) In order to assess the anti-proliferative effects, 1,500 MV-4-11, 300 MOLM14, 750 K562 or 1,300 KG1 cells were seeded in 200 μl media per well in 96-well round bottom, ultra-low attachment plates (Costar, catalogue number 7007). Cell seeding numbers were chosen based on growth curves to ensure linear growth throughout the experiment. Test compounds were added at different concentrations and the DMSO content was normalized to 0.3%. Cells were incubated for 8 d at 37° C. and 5% CO2. Spheroid like growth was monitored in real-time by live-cell imaging (IncuCyteZOOM, Essenbio, 4× objective) acquiring one image every four hours for 8 d. Confluence (%) as a measure of spheroid size was determined using an integrated analysis tool.
(§4) In order to determine the cumulative effect of the test compounds over time, the area under the curve (AUC) in a plot of confluence against time was calculated. Confluence at the beginning of the experiment (t=0) was used as baseline for the AUC calculation.
(§5) Absolute IC50 values were calculated according to the following procedure: % Control=(AUC sample/AUC control)*100 AUC control=mean AUC of control values (cells without compound/DMSO as vehicle control)
(§6) A non-linear curve fit was applied using the least squares (ordinary) fit method to the plot of % control versus compound concentration. Based on this, the absolute IC50 value (half maximal inhibitory concentration of the test compound causing an anti-proliferative effect of 50% relative to the vehicle control) was calculated.

[3] = test system: MV-4-11; test: Proliferation assay (spheroid assay) MV-4-11; assay type: cell-based, human
Procedure: as §1, §2, §3, §4, §5, §6

[4] = averaged values over all measurements, read-out: Menin FP assay (IC50 (μM))
[5] = Homo sapiens, MOLM-14, MOLM14, averaged values, read-out: Spheroid assay MOLM14 (IC50 (μM))
[6] = Homo sapiens, MV4-11, MV-4-11, averaged values, read-out: Spheroid assay MV-4-11 (IC50 (μM))
[7] = MOLM14 (MLL-AF9), 8 d, absolute IC50 from AUC of confluence, individual measurements (not averaged), read-out: (2) Spheroid assay MOLM14 (IC50 (μM))
[8] = 100 nM menin, 5 nM FITC-MBM1 peptide, individual measurements (not averaged), read-out: (1) Menin FP assay (IC50 (μM))

IC50 [1, 4] [µM]	IC50 [2, 5] [µM]	IC50 [3, 6] [µM]	Compound	other results
0.95			Cn1cncc1CN1CC2(CCN(c3ncnc4sc(CC(F)(F)F)cc34)C2)C1 [Compound 23]	
0.53	> 15	9.2	Cn1cc(CN2CC3(CCN(c4ncnc5sc(CC(F)(F)F)cc45)C3)C2)cn1 [Compound 30]	
0.81			Cc1nc(N2CCCC3(CCN(Cc4ccccc4)C3)C2)c2cc(CC(F)(F)F)sc2n1 (stereo not drawn) [Compound 19]	
2.36			O=C(NCCO)C(c1ccccc1)N1CC2(CCN(c3ncnc4sc(CC(F)(F)F)cc34)C2)C1 (stereo not drawn) [Compound 75]	
0.11	10.3	3.4	CC(C)[C@@H](C1CNC1)N1CC2(CCN(c3ncnc4sc(CC(F)(F)F)cc34)C2)C1 [Compound 200]	
0.31	7.2	3.8	FC(F)(F)Cc1cc2c(N3CCC4(CN(Cc5ccc[nH]5)C4)C3)ncnc2s1 [Compound 25]	
0.79			FC(F)(F)Cc1cc2c(N3CCC4(CN(Cc5cnc(Cl)cn5)C4)C3)ncnc2s1 [Compound 8]	
0.63			FC(F)(F)Cc1cc2c(N3CC4(CN(Cc5cc[nH]n5)C4)C3)ncnc2s1 [Compound 41]	
0.72			Cn1ccc(CN2CC3(C2)CN(c2ncnc4sc(CC(F)(F)F)cc24)C3)n1 [Compound 34]	
0.12	> 15	2.1	Cn1cc2c(n1)CCCC2N1CC2(CCN(c3ncnc4sc(CC(F)(F)F)cc34)C2)C1 (stereo not drawn) [Compound 133]	
0.12	6.1	2	CC(C)NCCNC(=O)C(c1ccccc1)N1CC2(CCN(c3ncnc4sc(CC(F)(F)F)cc34)C2)C1 (stereo not drawn) [Compound 74]	
0.76			FC(F)(F)Cc1cc2c(N3CCC4(CN(Cc5cncc(Cl)n5)C4)C3)ncnc2s1 [Compound 11]	
0.99			Cn1ccc(CN2CC3(CCN(c4ncnc5sc(CC(F)(F)F)cc45)C3)C2)n1 [Compound 35]	
			FC(F)(F)Cc1cc2c(N3CCC4(CN(Cc5cn[nH]c5)C4)C3)ncnc2s1 [Compound 29]	IC50 ([2]; Homo sapiens, MOLM-14, 192 h, MOLM14 (MLL-AF9), 8 d, absolute IC50 from AUC of confluence, individual measurements (not averaged), read-out: (2) Spheroid assay MOLM14 (IC50 (μM))): 10.8 µM; IC50 [2, 7]: > 15 µM; IC50 [1, 8]: 0.346 µM; IC50 ([3]; MV-4-11 (MLL-AF4), 8 d, absolute IC50 from AUC of confluence, individual measurements (not averaged), read-out: (2) Spheroid assay MV-4-11 (IC50 (μM))): 1.8 µM and > 15 µM and 9.9 µM
0.4			CC(C)n1cc(CN2CC3(CCN(c4ncnc5sc(CC(F)(F)F)cc45)C3)C2)cn1 [Compound 36]	
0.73			FC(F)(F)Cc1cc2c(N3CCC4(CN(Cc5ccnnc5)C4)C3)ncnc2s1 [Compound 4]	
0.17	3.1	1.5	NCCCOc1cccc(CN2CC3(CCN(c4ncnc5sc(CC(F)(F)F)cc45)C3)C2)c1 [Compound 37]	
0.11	> 15	11.1	O=C([C@@H]1CC(F)(F)CN1)N1CC2(C1)CN(c1ncnc3sc(CC(F)(F)F)cc13)C2 [Compound 90]	

IC50 [1, 4] [µM]	IC50 [2, 5] [µM]	IC50 [3, 6] [µM]	Compound	other results
	1.2	0.47	Cc1ccc(CN2CC[C@]3(CCN(c4ncnc5sc(CC(F)(F)F)cc45)C3)C2)cc1 (single isomer, unassigned) [Compound 290]	
0.045	10.5	1.3	O=C([C@@H]1C[C@@H](F)CN1)N1CC2(C1)CN(c1ncnc3sc(CC(F)(F)F)cc13)C2 [Compound 89]	
0.11	4.9	2.2	FC(F)(F)Cc1cc2c(N3CC4(CN(Cc5ccccc5)C4)C3)ncnc2s1 [Compound 14]	
	> 15	10.1	Cn1cc2c(n1)CCCC2N1CC2(CCN(c3ncnc4sc(CC(F)(F)F)cc34)C2)C1 (single isomer, unassigned) [Compound 137]	
	6.7	1.16	Cn1cc(CN2CC[C@@]3(CCN(c4ncnc5sc(CC(F)(F)F)cc45)C3)C2)cn1 (single isomer, unassigned) [Compound 295]	
0.41	> 15	12.9	C[C@@H](c1cnn(C)c1)N1CC2(CCN(c3ncnc4sc(CC(F)(F)F)cc34)C2)C1 [Compound 199]	
1.07			Cn1cc(C(CN)N2CC3(CCN(c4ncnc5sc(CC(F)(F)F)cc45)C3)C2)cn1 (stereo not drawn) [Compound 195]	
0.3	> 15	7.3	CC(c1cnn(C)c1)N1CC2(CCN(c3ncnc4sc(CC(F)(F)F)cc34)C2)C1 (stereo not drawn) [Compound 197]	
0.84			FC(F)(F)Cc1cc2c(N3CCC4(CN(Cc5ccncn5)C4)C3)ncnc2s1 [Compound 9]	
2.31			FC(F)(F)Cc1cc2c(N3CCC4(CN(Cc5cncnc5)C4)C3)ncnc2s1 [Compound 10]	
0.84			FC(F)(F)Cc1cc2c(N3CC4(CN(Cc5cn[nH]c5)C4)C3)ncnc2s1 [Compound 40]	
	1.3	0.21	Cc1ccc(CN2CC[C@@]3(CCN(c4ncnc5sc(CC(F)(F)F)cc45)C3)C2)cc1 (single isomer, unassigned) [Compound 289]	
			Cn1cc(CN2CC3(C2)CN(c2ncnc4sc(CC(F)(F)F)cc24)C3)cn1 [Compound 28]	IC50 [2, 7]: 3.2 µM and > 15 µM; IC50 [1, 8]: 0.517 µM
0.73			FC(F)(F)Cc1cc2c(N3CCC4(CN(Cc5cnc6ccccn56)C4)C3)ncnc2s1 [Compound 7]	
	> 15	4.1	CC(C)CN1CC2(C1)CN(c1ncnc3sc(CC(F)(F)F)cc13)C2 [Compound 44]	
	8.6	4.2	OCc1ccccc1CN1CC2(CCN(c3ncnc4sc(CC(F)(F)F)cc34)C2)C1 [Compound 57]	
	> 15	12.7	Cn1cc([C@@H](C2CCNCC2)N2CC3(CCN(c4ncnc5sc(CC(F)(F)F)cc45)C3)C2)cn1 [Compound 201]	

Compound	IC50 [1, 4] [µM]	IC50 [2, 5] [µM]	IC50 [3, 6] [µM]	other results
[CH3][Ge]([CH3])([CH3])[CH2]N1CC2(CCN(c3ncnc4sc(CC(F)(F)F)cc34)C2)C1 [Compound 31]	0.087			
